Test results as given in ChEMBL document CHEMBL5528053, “Discovery of Novel Isoquinoline Analogues as Dual Tubulin Polymerization/V-ATPase Inhibitors with Immunogenic Cell Death Induction” (J Med Chem, 2024).
Calls of active or inactive are those of the source. The rule behind the calls is not given here.

Legend:
[1] = test system: MDA-MB-231; assay: Antiproliferative activity against human MDA-MB-231 cells assessed as inhibition of cell growth after 72 hrs by MTT assay; format: functional, cell-based; conditions: MDA-MB-231, 72 h
[2] = test system: PC-3; assay: Antiproliferative activity against human PC-3 cells assessed as inhibition of cell growth after 72 hrs by MTT assay; format: functional, cell-based; conditions: PC-3, 72 h
[3] = test system: A549; assay: Antiproliferative activity against human A549 cells assessed as inhibition of cell growth after 72 hrs by MTT assay; format: functional, cell-based; conditions: A549, 72 h
[4] = test system: DU-145; assay: Antiproliferative activity against human DU-145 cells assessed as inhibition of cell growth after 72 hrs by MTT assay; format: functional, cell-based; conditions: DU-145, 72 h
[5] = Anticancer activity against mouse RM1 cells assessed as increase in mean fluorescence intensity at 2 nM measured after 24 hrs by flow cytometry analysis (reference value: 7.40+/-3.96 ); format: functional
[6] = test system: PC-3; assay: Inhibition of autophagy in human PC-3 cells assessed as increase in number of autophagosomes at 50 uM measured after 3 hrs by immunofluorescence imaging based analysis; format: functional, cell-based
[7] = Toxicity in ICR mouse assessed as effect on ALT level at 5 mg/kg, ip measured for 14 days; format: organism-based; conditions: in vivo, 336 h, time 14 day
[8] = Toxicity in ICR mouse assessed as bone marrow suppression by measuring hemoglobin count at 5 mg/kg, ip measured for 14 days; format: organism-based; conditions: in vivo, 336 h, time 14 day
[9] = Toxicity in ICR mouse assessed as decrease in lymphocytes at 5 mg/kg, ip measured for 14 days; format: organism-based; conditions: in vivo, 336 h, time 14 day
[10] = Antitumor immunity against mouse RM1 cells homografted in C57BL/6 mouse model assessed as increase in tumor infiltrating helper T lymphocytes at 5 mg/kg, iv administered every two days for 14 days by flow cytometry analysis (reference value: 6.59%); format: functional; conditions: time 14 day
[11] = test system: RM1; assay: Antitumor immunity against mouse RM1 cells homografted in C57BL/6 mouse model assessed as increase in tumor infiltrating CD3+CD8+T cells (CTLs) in spleen at 5 mg/kg, iv administered every two days for 14 days by flow cytometry analysis; format: functional, organism-based; conditions: time 14.0 day
[12] = Antitumor activity against mouse RM1 cells xenografted in immunocompetent […] mouse model assessed as tumor growth inhibition at 5 mg/kg, iv measured every two days for 14 days relative to control; format: functional; conditions: RM1, 336 h, time 14 day, read-out: TGI
[13] = Antitumor immunity against mouse RM1 cells homografted in C57BL/6 mouse model assessed as increase in tumor infiltrating lymphocytes at 5 mg/kg, iv administered every two days for 14 days by flow cytometry analysis (reference value: 5.26%); format: functional; conditions: time 14 day
[14] = test system: RM1; assay: Antitumor immunity against mouse RM1 cells homografted in C57BL/6 mouse model assessed as increase in activation of tumor infiltrating lymphocytes in spleen at 5 mg/kg, iv administered every two days for 14 days by flow cytometry analysis; format: functional, organism-based; conditions: time 14.0 day
[15] = Toxicity in ICR mouse assessed as bone marrow suppression by measuring WBC level at 5 mg/kg, ip measured for 14 days; format: organism-based; conditions: in vivo, 336 h, time 14 day
[16] = Antitumor immunity against mouse RM1 cells homografted in C57BL/6 mouse model assessed as increase in tumor infiltrating CD3+CD8+T cells (CTLs) at 5 mg/kg, iv administered every two days for 14 days by flow cytometry analysis (reference value: 0.89%); format: functional; conditions: time 14 day
[17] = test system: RM1; assay: Antitumor immunity against mouse RM1 cells homografted in C57BL/6 mouse model assessed as increase in tumor infiltrating helper T lymphocytes in spleen at 5 mg/kg, iv administered every two days for 14 days by flow cytometry analysis; format: functional, organism-based; conditions: time 14.0 day
[18] = Antitumor activity against mouse RM1 cells homografted in C57BL/6 mouse model assessed as tumor growth inhibition at 5 mg/kg, iv administered every two days for 14 days by vernier caliper based analysis relative to control; format: functional; conditions: RM1, 336 h, time 14 day, read-out: TGI
[19] = Toxicity in ICR mouse assessed as bone marrow suppression by measuring RBC level at 5 mg/kg, ip measured for 14 days; format: organism-based, Erythrocyte; conditions: in vivo, 336 h, time 14 day

SMILES	IC50 [1] [µM]	IC50 [2] [µM]	IC50 [3] [µM]	IC50 [4] [µM]	other results
CCCOc1cc(-c2nc(C(N)=O)cc3cc4c(cc23)OCCO4)cc(OC)c1OC	> 10	> 10	5.56	> 10	
COc1cc(-c2nc(C(N)=O)cc3cc4c(cc23)OCCO4)cc2c1OCCCO2	> 10	3.34	2.95	8.35	
COc1cc(-c2nc(CO)cc3cc4c(cc23)OCCO4)cc(OC)c1OC	1.35	1.63	1.26	1.46	
CCOc1c(OC)cc(-c2nc(C(N)=O)cc3cc4c(cc23)OCCO4)cc1OC	> 10	> 10	> 10	> 10	
COc1cc(-c2nc(C(=O)NO)cc3cc4c(cc23)OCCO4)cc(OC)c1OC	1.58	1.48	1.75	1.94	
COc1cccc2c1C(=O)c1c(O)c3c(c(O)c1C2=O)C[C@@](O)(C(=O)CO)C[C@@H]3O[C@H]1C[C@H](N)[C@H](O)[C@H](C)O1 [DOXORUBICIN]					Flu intensity [5]: 184.3
COC(=O)c1cc2cc3c(cc2c(-c2cc(OC)c(OC)c(OC)c2)n1)OCCO3	3.21	1.57	1.53	2.1	
COc1cc2c(O)c3c(c(-c4ccc5c(c4)OCO5)c2cc1OC)C(=O)OC3 [DIPHYLLIN]	2.27	0.21	0.89	0.38	
CCOc1cc(-c2nc(C(N)=O)cc3cc4c(cc23)OCCO4)cc(OC)c1OC	0.48	0.39	0.37	0.54	
CCCOc1c(OC)cc(-c2nc(C(N)=O)cc3cc4c(cc23)OCCO4)cc1OC	2.42	1.99	1.39	1.64	
CCN(CC)CCCC(C)Nc1ccnc2cc(Cl)ccc12 (stereo unspecified)					inhibition [6]: Active
COc1c(Br)cc(-c2nc(C(N)=O)cc3cc4c(cc23)OCCO4)cc1Br	0.4	0.27	0.2	0.32	
CCCOc1ccc2c(-c3cc(OC)c(OC)c(OC)c3)nc(C(N)=O)cc2c1	> 10	> 10	> 10	> 10	
COc1cc2c(c(OC)c1OC)-c1ccc(OC)c(=O)cc1[C@@H](NC(C)=O)CC2 [COLCHICINE]	0.12	0.05		0.07	
CC(=O)O[C@H]1C(=O)[C@@]2(C)[C@H]([C@H](OC(=O)c3ccccc3)[C@]3(O)C[C@H](OC(=O)[C@H](O)[C@@H](NC(=O)c4ccccc4)c4ccccc4)C(C)=C1C3(C)C)[C@]1(OC(C)=O)CO[C@@H]1C[C@@H]2O [PACLITAXEL]					Activity [7]: Toxic; Activity [8]: Toxic; Activity [9]: Toxic; Activity [10]: 9.81%; Activity [11]: inactive; inhibition in vivo at 5 mg/kg [12]: 55.5%; Activity [13]: 5.68%; Activity [14]: Active; Activity [15]: Toxic; Activity [16]: 1.16%; Activity [17]: inactive; inhibition in vivo at 5 mg/kg [18]: 54.6%; Activity [19]: Toxic
COc1cc(-c2nc(C(=O)O)cc3cc4c(cc23)OCCO4)cc(OC)c1OC	> 10	> 10	> 10	> 10	
COc1cc(-c2nc(C(N)=O)cc3cc(OCCCN4CCOCC4)ccc23)cc(OC)c1OC	> 10	> 10	> 10	> 10	
COc1cc(-c2nc(C(N)=O)cc3cc4c(cc23)OCCO4)cc(OC)c1OC	1.27	1.18	0.84	1.05	
COc1c(Cl)cc(-c2nc(C(N)=O)cc3cc4c(cc23)OCCO4)cc1Cl	0.87	0.64	0.25	0.49	
COc1cc(-c2nc(C(N)=O)cc3cc4c(cc23)OCCO4)cc(I)c1OC	0.3	0.17	0.18	0.3	
COc1c(I)cc(-c2nc(C(N)=O)cc3cc4c(cc23)OCCO4)cc1I	0.73	1.98	2.15	3.22	
COc1ccc2c(-c3cc(OC)c(OC)c(OC)c3)nc(C(N)=O)cc2c1	> 10	> 10	> 10	> 10	
COc1cc(-c2nc(C(N)=O)cc3cc4c(cc23)OCCO4)cc2c1OCCO2	0.75	1.35	1.85	1.56	
COc1cc(-c2nc(C(N)=O)cc3cc4c(cc23)OCCO4)cc(Cl)c1OC	0.21	0.2	0.16	0.27	
CCOc1ccc2c(-c3cc(OC)c(OC)c(OC)c3)nc(C(N)=O)cc2c1	> 10	> 10	> 10	> 10	
COc1cc(-c2nc(C(N)=O)cc3cc4c(cc23)OCCO4)cc2c1OCO2	1.31	1.12	2.01	0.75	
